Assay results from US20230183187A1, “QUINAZOLINE COMPOUNDS AS INHIBITORS OF PREMATURE TERMINATION CODONS” (CENTRE NATIONAL DE LA RECHERCHE SCIENTIFIQUE, priority 2020, published 2023).

Key:
TP53-R213X mRNA = assay: RT-qPCR of mutant p53 mRNA in HDQ-P1 cells; format: cell-based, human; details: HDQ-P1, 48 hours; TLN68 80 μM, TLN309 40 μM; n=3
Method: For the analysis of mRNA levels for p53 and its transcriptional target genes, Bax, the inventors extracted total RNA from HDQ-P1 cells that had or had not been treated with G418 (400 μM) or TLN68 (80 μM) for 48 hours (RNeasy Mini Kit, Qiagen). The RNA was treated with DNAse I (RNase-free DNase) and quantified with a Nanodrop spectrometer (ThermoScientific). The absence of RNA degradation was confirmed by agarose gel electrophoresis. The first-strand cDNA was synthesized from 2 μg of total RNA, with random primers and the SuperScript II Reverse Transcriptase (Invitrogen), as recommended by the manufacturer. Quantitative PCR was then carried out on equal amounts of the various cDNAs, with a CFX96 thermocycler (Biorad), and the accumulation of products was monitored with the intercalating dye FastStart Universal SYBRGreen Master (ROX) reagent (Roche). The inventors quantified mRNA levels relative to three reference mRNAs: RPL32, Hprt1 and HMBS. In each experiment, results are expressed relative to those for untreated cells, for which the value obtained was set to 1. Relative levels of gene expression were calculated at early stages of PCR, when the amplification was exponential and might, therefore, be correlated with the initial number of copies of the transcript. […] For the quantification of each mRNA, three independent experiments (from biological replicates) were performed in triplicate. […]

[1] = system: TP53 R213X nonsense mutation; assay: Dual reporter (lacZ/F-luc, pAC99) stop codon readthrough quantification, R213X, NIH3T3 cells; format: cell-based, mouse; details: 24 h, each drug separately or together
From the text: Complementary oligonucleotides corresponding to TP53 R213X nonsense mutations and 9 nucleotides on both sides are ligated into the pAC99 dual reporter plasmid, as previously described (Premature stop codons involved in muscular dystrophies show a broad spectrum of readthrough efficiencies in response to gentamicin treatment, Bidou et al, Gene Therapy 1 Apr. 2004, 11(7):619-627). This dual reporter is used to quantify stop-codon readthrough through the measurement of luciferase and beta-galactosidase (internal calibration) activities, as previously described (Stahl et al, Versatile vectors to study recoding: conservation of rules between yeast and mammalian cells. Nucleic Acids Res 1995; 23:1557-60). Readthrough levels for nonsense mutations were analysed in the presence or absence of tested molecules. Cells were seeded in a 6-well plate. The next day, cells are transfected with the reporter plasmid in the presence of JetPei reagent (Invitrogen). The following day, they are rinsed with fresh medium, with or without readthrough inducers. […] Readthrough efficiency was estimated by calculating the ratio of luciferase activity to beta-galactosidase activity obtained with the test construct, with normalisation against an in-frame control construct. […]

## Cc1nc(NC(=N)N)nc2ccccc12 [TLN68]
TP53-R213X mRNA
  stabilisation of TP53-R213X mRNA relative to untreated: 6 fold
[1]
  readthrough level: 11%
